As usually defined, the viability is the share of living cells, or the viability signal relative to a control. By cell viability is commonly meant a read-out of living cells in per cent, often relative to untreated cells.

Here are results for two compounds from patent US20230320986A1, “TARGETED ANT[…] SYSTEM FOR CANCER TREATMENT” (priority 2020, published 2023).

Molecules are shown by their SMILES.

Series [1] concerns M21 cells. Description: Cytotoxicity in cultured cells. Particulars: 25 µM drug, 30 min treatment. The class given is cell-based, human. How it is done: (§1) For assessment of the UTO cytotoxicity the cytotoxicity of RPAR-UTO-PS, UTO-PS, PS, free UTO, and free DOX in cultured PPC-1 (FIG. 4) and M21 (FIG. 5) cells after 30 min treatment over a range of drug concentrations was tested.

The test system of series [2] is PPC-1 cells. Nature of the series: Cytotoxicity in cultured cells. The class given is cell-based, human. The following applies: 30 min treatment. How it is done: as §1
Series [3] is described as follows: Cumulative drug release from polymersomes. The class given is physicochemical. The following applies: after 48 h, 37° C., PBS. How it is done: To further evaluate the UTO and DOX cumulative release behavior from polymersomes, UTO-and DOX-loaded PS were incubated at 37° C. in PBS (0.25 mL) for different time periods (0; 1; 4; 24; and 48 h). The samples were centrifuged using Amicon Ultra centrifugal filters (MWCO 100 kDa) for 20 min at 6,000 g at RT. The fluorescence of the filtrates was measured at 485 nm/535 nm (0.1 s) using a Victor X5 Multilabel Microplate Reader (Perkin Elmer, USA) to quantify the released drug amount.

Series [4] in a line: Encapsulation efficiency in polymersomes (section 3.2). The class given is physicochemical. Particulars: thin-film hydration, after size exclusion chromatography. How it is done:
For the encapsulation of the drug inside PS, 50 nmols of drug were dissolved in 100 µL of acetone and added to the polymers dissolved in acetone (total amount of polymer was 5 mg). The acetone was evaporated to form the polymer/drug film and the PS were formed as described above.
PS were purified by size exclusion chromatography. Agarose beads with a diameter of 45-165 µm ([…] 4B gel) were used as stationary phase. The height of the Sephadex gel in a column was 8 cm (volume 25.13 mL). The PS sample was eluted with PBS pH 7.4.
The amount of encapsulated drug was quantified using a Nanodrop 2000c UV-VIS spectrophotometer (Thermo Scientific, USA). For drug quantification, serial dilutions of drug in MeOH:water 1:1 were prepared and the absorbance at 490 nm was measured. Using gathered data, the linear trend line was constructed in MS Excel program and the formula was further used to evaluate the concentration of drug inside PS.
For assessment of the UTO encapsulation efficiency the above depicted anthracycline derivative was encapsulated in a PS using a thin-film hydration method. After encapsulation the sample was purified by size exclusion chromatography to remove non-encapsulated drug. […]
(In general: SEC sorts molecules by how far they enter the pores of the column.)

Series [5] can be described thus: Encapsulation efficiency, comparison PS-UTO vs. PS-DOX (section 4). The following applies: PEG-PCL-PS. The class given is physicochemical. How it is done:
Polymersomes were prepared by dissolving 5 mg of PEG-PCL in 0.3 mL acetone. The acetone was evaporated with nitrogen flow forming a thin polymeric film on the wall of the glass vial. The film was hydrated with 0.5 mL of PBS pH 7.4 previously purged with nitrogen flow, heated for 30 seconds in a 65° C. water bath, and sonicated for 30 seconds. The heating and sonication steps were repeated until the PS were formed and polymer aggregates were not observed in the suspension. The final volume of PS samples was 0.5 mL and the total polymer concentration 10 mg/mL.
For the PS encapsulation of UTO […] of UTO were dissolved in 100 µL of acetone (0.5 mM concentration) and added to the polymers dissolved in acetone (total amount of polymer - 5 mg, UTO concentration 0.125 mM). The acetone was evaporated to form the polymer/drug film and the PS were formed as described above.
For DOX encapsulation the polymeric film was hydrated with 2 mM DOX solution in PBS pH 7.4 and the PS were formed as described above. […]
The UTO and DOX PS-encapsulated amounts were quantified using UV-VIS spectrometry (Thermo Scientific, USA). For UTO quantification, serial dilutions of UTO in MeOH:water 1:1 were prepared and the absorbance at 485 nm was used for calibration. For DOX quantification, serial dilutions of DOX in PBS were prepared and also the absorbance at 485 nm was measured. […]

As for `CC(=O)OCOC(=O)N1CO[C@@H]2[C@H](C)O[C@@H](O[C@H]3C[C@](N)(C(C)O)Cc4c(O)c5c(c(O)c43)C(=O)c3ccccc3C5=O)C[C@@H]21` (some centres unmarked) [UTO], the viability at 25 µM turned out to be 15% in series [1] (Homo sapiens, 0.5 h, read-out: cell viability) and 14% in series [2] (Homo sapiens, 0.5 h, 25 µM drug, read-out: cell viability). Moreover, the viability at 2.5 µM in series [2] (Homo sapiens, 0.5 h, 2.5 µM drug, read-out: cell viability) came out at 68%. In addition, the “drug released from the PS” value in series [3] is listed as “less than 3%”.
With `COc1cccc2c1C(=O)c1c(O)c3c(c(O)c1C2=O)C[C@@](O)(C(=O)CO)C[C@@H]3O[C@H]1C[C@H](N)[C@H](O)[C@H](C)O1` [DOX, doxorubicin], the “encapsulation efficiency (EE)” value in series [4] came out at 1%; in series [5] (film hydration, after purification) it was 2.3%. Moreover, the “encapsulation efficiency, times lower compared to UTO” value in series [5] is given as “approximately 20 times”. The cell viability came to 58% in series [1], 87% in series [2] (2.5 µM drug) and 56% in series [2] (25 µM drug). Moreover, in series [3], the “drug released from the PS” value is recorded as “approximately 10%”.
